Experimental data: PubChem BioAssay (NCI)
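96-well plates; 48 h exposure; 5 concentrations. Endpoints by linear interpolation between flanking doses. Not reached: highest tested concentration assigned. TGI: total growth inhibition.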

Key:
Test in all cases: growth of human tumour cells (NCI), 48 h
[1] = test system: HS 578T breast
[2] = test system: SK-MEL-2 melanoma
[3] = test system: IGROV1 ovarian
[4] = test system: T-47D breast
[5] = test system: SNB-75 CNS
[6] = test system: NCI-H460 lung
[7] = test system: RXF 393 renal
[8] = test system: MDA-N
[9] = test system: OVCAR-4 ovarian
[10] = test system: CAKI-1 renal
[11] = test system: TK-10 renal

Structure (SMILES) | TGI [1] | TGI [2] | TGI [3] | TGI [4] | TGI [5] | TGI [6] | TGI [7] | TGI [8] | TGI [9] | TGI [10] | TGI [11]
O=C(O)[C@H]1CCCN1CP(=O)(O)CN1CCC[C@@H]1C(=O)O | > 100 µM | > 100 µM | > 100 µM | > 100 µM | > 100 µM | > 100 µM | > 100 µM | > 100 µM | > 100 µM | > 100 µM | –
CC(c1ccccc1)N1CCN(C(C)c2ccccc2)CC1 (centres undefined) | > 100 µM | > 100 µM | > 100 µM | > 100 µM | – | > 100 µM | > 100 µM | > 100 µM | > 100 µM | > 100 µM | > 100 µM
CC1(C)OC[C@@H](O)[C@H](C#N)CO1 | > 100 µM | > 100 µM | – | > 100 µM | > 100 µM | > 100 µM | > 100 µM | > 100 µM | > 100 µM | > 100 µM | > 100 µM
O=C(O)CCNc1ncnc2nc[nH]c12 | > 100 µM | > 100 µM | > 100 µM | > 100 µM | > 100 µM | > 100 µM | > 100 µM | > 100 µM | > 100 µM | > 100 µM | > 100 µM
BrC(=C(c1ccc(OC2CCCCO2)cc1)c1ccc(OC2CCCCO2)cc1)c1ccccc1 (centres undefined) | > 100 µM | – | > 100 µM | > 100 µM | > 100 µM | > 100 µM | > 100 µM | > 100 µM | > 100 µM | > 100 µM | > 100 µM
Cc1c2cc[n+](C)c(C)c2cc2c1[nH]c1ccccc12 | 7.54 µM | 30.5 µM | > 100 µM | 10.4 µM | 6.98 µM | 26.5 µM | > 100 µM | > 93.8 µM | 43.3 µM | > 91.9 µM | > 100 µM
Clc1ccc(-c2nnc3sc4nc5ccccc5c-4nn23)c(Cl)c1 | > 100 µM | 82.2 µM | – | > 100 µM | > 100 µM | > 100 µM | > 100 µM | 82.6 µM | > 100 µM | > 100 µM | > 100 µM
COc1ccc(C2OC(c3ccncc3)=NN2C)cc1F (centres undefined) | > 100 µM | > 100 µM | > 100 µM | > 100 µM | – | > 100 µM | > 100 µM | > 100 µM | > 100 µM | > 100 µM | > 100 µM
Cc1ccc(C2=CC(=O)OC(C[P+](c3ccccc3)(c3ccccc3)c3ccccc3)(c3ccccc3)O2)cc1 (centres undefined) | 42.6 µM | 29.2 µM | 27.4 µM | 41.1 µM | 36.2 µM | 43.8 µM | 73.2 µM | 29.2 µM | 31.5 µM | 29.3 µM | 35.6 µM
Cc1nc(C)c(N2CCN([N+](=O)[O-])CC2)c(=O)[nH]1 | > 100 µM | – | > 100 µM | > 100 µM | 0.611 µM | > 100 µM | > 100 µM | > 100 µM | > 100 µM | > 100 µM | > 100 µM
NS(=O)(=O)c1ccc(NC(=S)/N=C/C2=C(O)c3ccccc3C2=O)cc1 | > 100 µM | > 100 µM | > 100 µM | > 100 µM | 76.4 µM | > 100 µM | > 100 µM | > 100 µM | > 100 µM | > 100 µM | > 100 µM
